The source made the active and inactive calls. How the calls were made is not given here.
What follows are molecules tested against glucose-6-phosphate dehydrogenase-6-phosphogluconolactonase (Plasmodium falciparum 3D7) (assay: PfG6PD enzyme inhibitors, kinetic NADPH readout, dose response, orthogonal assay, biochemical, kinetic NADPH detection (AID 540269)). Details: purified PfG6PD-6PGL.
With `O=C(CN1CCN(c2ccc(O)cc2)CC1)Nc1cc(S(=O)(=O)N2CCOCC2)ccc1Cl` the IC50 was > 80 µM (inactive).
For `Cc1ccc(/C=C/C(=O)Nc2ccc([N+](=O)[O-])c(NC(=O)/C=C/c3ccc(C)o3)c2)o1`, the IC50 was > 80 µM (inactive).
With `CC(C)c1nnc(NC(=O)c2cccc(-n3cnnn3)c2)s1` the IC50 was 27.4 µM.
In the case of `Cc1ccc(S(=O)(=O)Oc2cccc(/C=N/Nc3ccc(C(=O)O)cc3)c2)cc1`, the IC50 is reported as 41.4 µM.
Molecule `Clc1nssc1=Nc1nncs1` has an IC50 of 33.4 µM.
In the case of `Cc1nnc(SCC(=O)c2cc(C)n(-c3ccc4c(c3)OCO4)c2C)s1`, the IC50 is reported as > 80 µM (inactive).
Molecule `CCOc1ccc(Cl)cc1/C=N/NC(N)=O` has an IC50 of 48.7 µM.
In the case of `CN=c1nc(-c2ccccc2)n(-c2ccccc2)s1`, the IC50 is reported as 20.6 µM.
Work on `CC(NC1=CC(=O)c2cccnc2C1=O)C(O)c1ccccc1` (stereo unspecified) yielded an IC50 of 45.1 µM.
With `COCCNC(=S)Nc1ccc(N2CCOCC2)c(S(=O)(=O)Nc2ccc(Cl)cc2)c1` the IC50 was > 80 µM (inactive).
`CN(C)Cc1cc(O)c(CN(C)C)cc1O` gave an IC50 of 25.6 µM.
In the case of `S=C(NN=Cc1ccccn1)N(Cc1ccccn1)Cc1ccccn1`, the IC50 is reported as 29.5 µM.
For `CCc1c(C(=O)Nc2ccccc2)c(C)[nH]c(=S)c1C#N`, the IC50 was > 80 µM (inactive).
`CN1CCc2cccc3c2[C@@H]1Cc1ccc(O)c(O)c1-3` was tested, and the IC50 was > 80 µM (inactive).
`CC(=O)OCC1(C)CN(c2ccccc2)NC1=O` (stereo unspecified) was tested, and the IC50 was > 80 µM (inactive).
For `c1cncc(CNc2ccc3c(c2)OCO3)c1`, the IC50 was > 80 µM (inactive).
`Oc1ccc(NCc2ccccc2OCc2ccccc2)cc1` gave an IC50 of 53.9 µM.
`O=C(Nc1nnc(C2CC2)s1)c1ccc(Cl)nc1` showed an IC50 of 70.1 µM.
`O=C1/C(=C\c2ccc([N+](=O)[O-])cc2)CS(=O)(=O)C/C1=C/c1ccc([N+](=O)[O-])cc1` was tested, and the IC50 was > 80 µM (inactive).
With `O=C(COC(=O)c1ccc2c(c1[N+](=O)[O-])C(=O)c1ccccc1C2=O)NC1CC1` the IC50 was > 80 µM (inactive).
`Cc1cc(SCC(=O)N/N=C/c2ccco2)nc2ccccc12` was tested, and the IC50 was > 80 µM (inactive).
In the case of `O=c1c2cc(C(F)(F)F)ccc2sn1-c1ccccc1`, the IC50 is reported as 20.3 µM.
Molecule `CCN(CC)CCNC(=O)CCCCn1c(=S)[nH]c2c([nH]c3ccc(OC)cc32)c1=O` has an IC50 of 15.7 µM.
In the case of `Cc1cc(C(=O)O)ccc1-n1c(C)cc(C=C2C(=O)c3ccccc3C2=O)c1C`, the IC50 is reported as > 80 µM (inactive).
For `O=C(CCl)NCCN1C(=O)S/C(=C\c2cccnc2)C1=O`, the IC50 was > 80 µM (inactive).
With `COc1cc(-c2cc(OC)c(O)c(OC)c2)cc(OC)c1O` the IC50 was > 80 µM (inactive).
In the case of `CN(C)c1nc(=NCc2cccs2)ss1`, the IC50 is reported as > 80 µM (inactive).
`Cc1c(Cl)c([N+](=O)[O-])nn1Cc1ccc(C(=O)N/N=C\c2cccc(Br)c2)o1` was tested, and the IC50 was > 80 µM (inactive).
With `Cc1ccc(/C=C/C(=O)NCC2COc3ccccc3O2)o1` (stereo unspecified) the IC50 was > 80 µM (inactive).
For `O=C(O)c1ccc(-n2c(-c3cc(-c4ccco4)[nH]n3)n[nH]c2=S)cc1`, the IC50 was 40.8 µM.
Molecule `ClC(Cl)(c1nnnn1-c1ccccc1)c1nnnn1-c1ccccc1` has an IC50 of 61.2 µM.
With `O=[N+]([O-])c1c(NCCCO)cc(Sc2nc3ccccc3s2)c2nonc12` the IC50 was 73.7 µM.
`COc1ccc(CN(C)S(=O)(=O)c2nnc(NC(=O)c3ccc(C)cc3)s2)cc1OC` was tested, and the IC50 was 29.9 µM.
`O=[N+]([O-])c1c(NCCO)cc(Sc2nc3ccccc3s2)c2nonc12` was tested, and the IC50 was > 80 µM (inactive).
For `O=C1NC(=O)N(c2ccccc2)C(=O)/C1=C/c1ccc([N+](=O)[O-])s1`, the IC50 was > 80 µM (inactive).
`O=C(Nc1ccccc1C(=O)N/N=C/c1ccco1)c1ccccc1Cl` was tested, and the IC50 was > 80 µM (inactive).
`Cc1cccc(-n2c(=S)[nH]c3sc4c(c3c2=O)CCc2ccccc2-4)c1` showed an IC50 of 40.9 µM.
`CN1CCN(C(=O)c2sc(=S)n(-c3ccccc3)c2N)CC1` showed an IC50 of 50.3 µM.
`Cn1c(=O)[nH]c(=O)c2c1nc([N+](=O)[O-])n2Cc1ccccc1` was tested, and the IC50 was > 80 µM (inactive).
With `Cc1ccc(/C=C/C(=O)NC2CCCCCCC2)o1` the IC50 was > 80 µM (inactive).
For `CCn1c([N+](=O)[O-])nc2c1c(=O)[nH]c(=O)n2C`, the IC50 was > 80 µM (inactive).
Work on `CC(=O)Nc1ccc2c(=O)n(-c3ccccc3)sc2c1` yielded an IC50 of 15.6 µM.
`C=CCOc1c(Cl)cc(CNc2ccc(N(C)C)cc2)cc1OC` gave an IC50 of 61.5 µM.
In the case of `Cc1ccc(-n2sc3cc(F)ccc3c2=O)c(C)c1`, the IC50 is reported as 12.5 µM.
With `O=C(O)C(Cc1ccccc1)N1C(=O)C=CC1=O` (stereo unspecified) the IC50 was 36.2 µM.
For `O=C1CCN(c2ccccc2)N1`, the IC50 was > 80 µM (inactive).
Work on `COc1ccccc1N1CSC2=C(C#N)C(c3ccc(SC)cc3)CC(=O)N2C1` (stereo unspecified) yielded an IC50 of 62.6 µM.
With `COC(=O)C1=C(C(=O)OC)SC2(S1)C(C(=O)OC)=C(C(=O)OC)Sc1c2ssc1=O` the IC50 was > 80 µM (inactive).
Molecule `O=C(Nc1nnc(S(=O)(=O)N2CCCCC2)s1)c1ccc(Cl)cc1` has an IC50 of 25.6 µM.
For `Cc1ccc(C(=O)NCC(=O)NCC(=O)OCC(=O)c2ccc([N+](=O)[O-])cc2)cc1`, the IC50 was > 80 µM (inactive).
With `Cn1c(=O)c2c([nH]c(=S)n2CCCc2ccccc2)n(C)c1=O` the IC50 was 72.8 µM.
In the case of `Cc1ccc(Nc2cc(C)c(O)c(C)c2)cc1`, the IC50 is reported as > 80 µM (inactive).
With `COc1ccc(Nc2cc(C)c3c(O)cccc3n2)cc1` the IC50 was > 80 µM (inactive).
In the case of `CC(=O)Nc1ccc2sn(-c3ccccc3)c(=O)c2c1`, the IC50 is reported as 24.1 µM.
For `COc1cc(CNc2ccc3[nH]c(=O)[nH]c3c2)ccc1OCc1ccccc1`, the IC50 was > 80 µM (inactive).
Work on `Cc1ccc(-c2c(C(=O)N/N=C/c3ccsc3)nnn2-c2nonc2N)cc1` yielded an IC50 of 64.8 µM.
In the case of `COC(=O)CCC(=O)OC1(C)C(=O)C2=CN(C3CC3)C(c3ccc(OC)cc3)=CC2=C(Br)C1=O` (stereo unspecified), the IC50 is reported as 45.8 µM.
`Cc1ccc(-c2c(C(=O)N/N=C/c3ccc(C)o3)nnn2-c2nonc2N)cc1` showed an IC50 of 51.3 µM.
With `COc1c(O)c(O)c2oc(-c3ccccc3)cc(=O)c2c1OC` the IC50 was 66.9 µM.
For `COc1cc(CNc2ccc(N3CCCC3)cc2)cc(Cl)c1OC`, the IC50 was > 80 µM (inactive).
With `Nn1c(CSc2nc3ccccc3o2)nnc1CSc1nc2ccccc2o1` the IC50 was > 80 µM (inactive).
In the case of `CN(C)c1cccc2c1c(NC(=O)c1ccc(F)cc1)nn2C`, the IC50 is reported as > 80 µM (inactive).
For `CCOC(=O)c1ccc(-n2c(N)c(C(=O)NCC3CCCO3)sc2=S)cc1` (stereo unspecified), the IC50 was > 80 µM (inactive).
In the case of `CCS(=O)(=O)N1CCN(c2ccc([N+](=O)[O-])c(NC(C)c3ccccc3)c2)CC1` (stereo unspecified), the IC50 is reported as > 80 µM (inactive).
For `C=CCSc1nnc(NC(=O)c2ccc(Cl)nc2)s1`, the IC50 was > 80 µM (inactive).
For `Cc1ccc(S(=O)(=O)N(C(=O)c2ccncc2)c2ccc(OC(=O)c3ccncc3)c3ccccc23)cc1`, the IC50 was 55.7 µM.
`COCCn1nnnc1C(c1cc2cc(OC)c(OC)cc2[nH]c1=O)N1CCN(c2ccc(O)cc2)CC1` (stereo unspecified) showed an IC50 of 30.3 µM.
`O=c1[nH]sc2cc(F)ccc12` was tested, and the IC50 was 56.2 µM.
`CN(C)c1ccc(C=c2c3cc([N+](=O)[O-])ccc3n3c2cc(-c2ccccc2)[n+]3C)cc1` was tested, and the IC50 was 35.1 µM.
`Nn1c(SCC(=O)Nc2cccnc2Cl)nnc1-c1ccccc1` was tested, and the IC50 was > 80 µM (inactive).
Molecule `Cc1ccccc1-n1sc2cc(F)ccc2c1=O` has an IC50 of 10.2 µM.
In the case of `CCc1ccc(OCC(=O)N/N=C/c2cc([N+](=O)[O-])ccc2N2CCOCC2)cc1`, the IC50 is reported as > 80 µM (inactive).
Work on `Cc1no[n+]([O-])c1COc1cccc(/C=N/Nc2nncn2N)c1` yielded an IC50 of 30.5 µM.
For `COc1c(O)ccc2c1CN1CCc3cc4c(cc3C1C2)OCO4` (stereo unspecified), the IC50 was > 80 µM (inactive).
With `CN1CC[C@@]2(C)c3cc(O)ccc3N(C)[C@@H]12` the IC50 was 46.7 µM.
With `Cc1ccc(/C=C/C(=O)NCc2ccc(S(N)(=O)=O)cc2)o1` the IC50 was > 80 µM (inactive).
`Cc1ccc(-c2nn(C)c(=O)c3ccccc23)cc1CNC(=O)/C=C/c1ccccc1` showed an IC50 of 68.6 µM.
In the case of `COc1ccc(C(=O)ON=C2C=C(C)C(=O)C(C)=C2)cc1`, the IC50 is reported as > 80 µM (inactive).
`CCC(c1ccc(O)c(O)c1)C(CC)c1ccc(O)c(O)c1` (stereo unspecified) was tested, and the IC50 was > 80 µM (inactive).
In the case of `Cc1[nH]c(=S)c(C#N)c(C)c1CCC#N`, the IC50 is reported as > 80 µM (inactive).
`CS(=O)(=O)c1ccc(N)c(SSc2cc(S(C)(=O)=O)ccc2N)c1` gave an IC50 of 15.2 µM.
For `CCc1cc(-c2n[nH]c(C)c2-c2nc3ccccc3n2C)c(O)cc1O`, the IC50 was 9.3 µM.
`c1ccc(SSc2ccccn2)nc1` gave an IC50 of 64.1 µM.
For `CN(C)S(=O)(=O)c1cccc(-n2sc3ccccc3c2=O)c1`, the IC50 was 12.8 µM.
With `Cc1nnc(Sc2cc(NCCO)c([N+](=O)[O-])c3nonc23)s1` the IC50 was 36.6 µM.
`C=CCN=c1scc(-c2ccco2)n1/N=C/c1ccc(O)c(O)c1O` was tested, and the IC50 was 58.3 µM.
With `CC(C)Nc1ccc(Nc2ccccc2)cc1` the IC50 was > 80 µM (inactive).
With `Oc1ccc(-c2cn3c(n2)SCC3)cc1O` the IC50 was 46.5 µM.
In the case of `CCOc1ccc(NC(=O)Cn2sc3nc(C)cc(C)c3c2=O)cc1`, the IC50 is reported as 37.5 µM.
`Cn1c2ccccc2c2ccc3c(c21)C(=O)C=CC3=O` showed an IC50 of 1.8 µM.
For `COc1cc(NCCCn2cnc(C(=O)Nc3ccc(C)c(C)c3)n2)cc(OC)c1OC`, the IC50 was > 80 µM (inactive).
`CC(C)(C)NC(=O)COc1ccc(CNc2ccc3[nH]c(=O)[nH]c3c2)cc1` showed an IC50 of 10.4 µM.
In the case of `CC(C)Cn1c([N+](=O)[O-])nc2c1c(=O)[nH]c(=O)n2C`, the IC50 is reported as > 80 µM (inactive).
In the case of `Cc1ccc(NC2=C(NC(=O)c3ccccc3)C(=O)c3ccccc3C2=O)cc1Cl`, the IC50 is reported as > 80 µM (inactive).
For `CCOc1ccccc1NC(=O)CCCc1nc2ccccc2c(=O)[nH]1`, the IC50 was > 80 µM (inactive).
For `O=C(Nc1nnc(S(=O)(=O)N2CCCCCC2)s1)c1cccc(Br)c1`, the IC50 was 14.1 µM.
With `CCOC(=O)c1sc(NC(=O)CSc2nnc(Cc3ccccc3)o2)c(C#N)c1C` the IC50 was > 80 µM (inactive).
In the case of `COc1cc(/C=C2\CC/C(=C\c3cc(OC)c(O)c(OC)c3)C2=O)cc(OC)c1O`, the IC50 is reported as > 80 µM (inactive).
`CC1(OC(=O)C2CCCC2)C(=O)C=C2C=C(c3ccsc3)N(Cc3ccc4c(c3)OCO4)C=C2C1=O` (stereo unspecified) was tested, and the IC50 was > 80 µM (inactive).
`c1ccc(-c2nc(N3CCOCC3)s[n+]2-c2ccccc2)cc1` was tested, and the IC50 was > 80 µM (inactive).
Work on `O=C(Cn1sc2ccccc2c1=O)Nc1ccc(Cl)cc1` yielded an IC50 of 16 µM.
In the case of `O=S(=O)(Nc1ccc(Cl)cc1)c1ccc(N2CCOCC2)c(NC(=S)NCCN2CCOCC2)c1`, the IC50 is reported as > 80 µM (inactive).
`COc1ccc(-n2c(=S)[nH]c3c(sc(=S)n3-c3ccccc3)c2=O)c(OC)c1` was tested, and the IC50 was > 80 µM (inactive).
For `COC(=O)CCC(=O)OC1(C)C(=O)C2=CN(c3ccccc3)C(c3ccc(OC)cc3)=CC2=C(Br)C1=O` (stereo unspecified), the IC50 was > 80 µM (inactive).
Work on `O=S(=O)(Nc1c(O)ccc2ccccc12)c1ccccc1` yielded an IC50 of 9.3 µM.
Molecule `Nc1ccc2c3c(cccc13)-c1ccccc1-2` has an IC50 of 41.3 µM.

— PubChem BioAssay AID540269 (Sanford-Burnham Center for Chemical Genomics, 2011)
